Reference: patent publication US6555356B2, “Methods for microbial regulation” (Unisearch Limited, priority 1995, dated 2003)
In brackets after ≈: the same amount, converted by molar mass.

Experiments:
Assay type in all cases: cell-based
[1] = test system: Candida albicans; assay: Fungal growth inhibition zone assay, Candida albicans
Experimental: (§1) In addition to the tests described above, the effects of selected compounds of the general formula 2 on growth of bacteria, one yeast (Candida albicans) and one fungus (Helminthosporium sp.) were assessed. Bacteria were grown in liquid media in the presence of different concentrations of furanones and growth measured via changes in optical density (OD). Fungal assays were done by inoculating agar plates with spores. These plates contained different concentrations of furanone compounds in wells within the plates. Zones of inhibition around these wells were measured after 48 hours.

[2] = test system: Vibrio harveyi; assay: Growth of Vibrio harveyi
Experimental: (§2) The effect on growth of Serratia liquefaciens by furanone compounds was also measured in liquid LB medium by comparing growth of cultures without the addition of compounds versus growth of cultures with added furanone compounds (100 μg/ml of compounds 1-13 (FIG. 3) in separate cultures). Growth was measured as optical density at 450 nm and followed over a 48 hr period.
(§3) Initial assays for both strains of Vibrio were streaked onto LB agar plates (with 2% NaCl) with and without furanone compounds 1-4 at 5-100 μg/ml. Bioluminescence of the plates was visually assessed after 24 hours of incubation at room temperature. In subsequent assays, both strains were grown in liquid culture in the presence of furanones. Bioluminescence was assayed via a luminometer. The effects of furanones on growth of both strains were assayed as above.

[3] = test system: strain V54; assay: Marine isolate growth in liquid media, strain V54
Experimental: as §2
(§4) Methods followed those described for Serratia liquefaciens (above). Inhibition of growth of these bacteria by furanones was assessed as above.

[4] = test system: strain V55; assay: Marine isolate growth in liquid media, strain V55
Experimental: as §2, §4

[5] = test system: strain R86; assay: Marine isolate swimming, strain R86
[6] = test system: Serratia liquefaciens; assay: Serratia liquefaciens swarming assay; settings: 5-100 μg/ml in LB agar (0.7%) plates
Experimental: (§5) Serratia liquefaciens was grown in liquid LB medium at room temperature to an optical density of 0.3 at 450 nm and stable inoculated onto LB agar (0.7% agar) plates. Plates were incubated at 30° C. and observed regularly for swarming behaviour. The effect on swarming of furanone compounds was tested by adding (after sterilisation and cooling of the agar) compounds 1-13 (FIG. 3). in the concentration range of 5-100 μg/ml, to the plates.

[7] = test system: strain R130; assay: Marine isolate growth in liquid media, strain R130
Experimental: as §2, §4

[8] = test system: strain R12; assay: Marine isolate swarming, strain R12
Experimental: as §5, §4

[9] = test system: Vibrio harveyi; assay: Vibrio harveyi bioluminescence assay; settings: 100 μg/ml, visual inspection of agar plates
Experimental: as §3

[10] = test system: strain R86; assay: Marine isolate growth in liquid media, strain R86
Experimental: as §2, §4

[11] = test system: strain V21; assay: Marine isolate swimming, strain V21
[12] = test system: Chromobacterium violencia mutant negative for the HSL auto inducer; assay: Chromobacterium violencia (indigo) assay; settings: for Effect on HSL phenotype: indigo formation: Chromobacterium violencia, 100 μg/ml; for Stimulation of indigo production by the compound itself: indigo negative Chromobacterium violencia mutant, addition of compound
Experimental: (§6) A mutant of Chromobacterium violencia negative for the HSL auto inducer was used in the assay. The strain was pour plated in LB medium at high density and wells were punched after the media had set. Sterile, filtered supernatants from various HSL producing strains were added to the wells. Plates were incubated at 30° C. and observed for the formation of purple zones (due to […]) around the wells. The effects of furanone compounds 1 and 2 (FIG. 3) were assessed by running this assay on plates of LB medium containing furanone compounds at a concentration of 100 μg/ml. The effects of the compounds on growth of Chromobacterium were assessed as above.

[13] = test system: strain R130; assay: Marine isolate swarming, strain R130
Experimental: as §5, §4

[14] = test system: strain R12; assay: Marine isolate growth in liquid media, strain R12
Experimental: as §2, §4

[15] = test system: Vibrio fisheri; assay: Growth of Vibrio fisheri
Experimental: as §2, §3

[16] = test system: strain V55; assay: Marine isolate swarming, strain V55
Experimental: as §5, §4

[17] = test system: strain V55; assay: Marine isolate swimming, strain V55
[18] = test system: strain V54; assay: Marine isolate swimming, strain V54
[19] = test system: Chromobacterium violencia; assay: Growth of Chromobacterium violencia; settings: 100 μg/ml
Experimental: as §2, §6

[20] = test system: strain V21; assay: Marine isolate swarming, strain V21
Experimental: as §5, §4

[21] = test system: strain R12; assay: Marine isolate swimming, strain R12
[22] = test system: strain V21; assay: Marine isolate growth in liquid media, strain V21
Experimental: as §2, §4

[23] = test system: strain R130; assay: Marine isolate swimming, strain R130
[24] = test system: Helminthosporium sp.; assay: Fungal growth inhibition zone assay, Helminthosporium sp.
Experimental: as §1

[25] = test system: Pseudomonas aeruginosa; assay: Pseudomonas aeruginosa (elastase) assay; settings: 100 μg/ml in elastin agar
Experimental: (§7) Inoculants from precultures were streaked onto Peptone-Tryptic Soy Broth agar containing 0.3% elastin. Plates were incubated at 37° C. and observed for hydrolysis of the elastin. The effect of furanone compounds was assess by adding compounds 1-4 (100 μg/ml) to the plates and comparing zones of hydrolysis in plates with and without the compounds.

[26] = test system: strain R86; assay: Marine isolate swarming, strain R86
Experimental: as §5, §4

[27] = test system: Serratia liquefaciens; assay: Growth of Serratia liquefaciens in liquid LB medium; settings: 100 μg/ml
Experimental: as §2

[28] = test system: strain V54; assay: Marine isolate swarming, strain V54
Experimental: as §5, §4

[29] = test system: Vibrio fisheri; assay: Vibrio fisheri bioluminescence assay; settings: 100 μg/ml, visual inspection of agar plates
Experimental: as §3

[30] = test system: Pseudomonas aeruginosa; assay: Growth of Pseudomonas aeruginosa on plates; settings: 100 μg/ml
Experimental: as §7

Compound | width of inhibition zone ([1]; amount added 0.1 μg) | width of inhibition zone ([1]; amount added 1 μg) | width of inhibition zone ([1]; amount added 10 μg) | width of inhibition zone ([1]; amount added 100 μg) | Effect on bacterial growth [2] | Minimum inhibitory concentration, Growth [3] | Minimum inhibitory concentration, Growth [4] | Minimum inhibitory concentration, Swimming [5] | Effect on HSL phenotype: swarming [6] | Minimum inhibitory concentration, Growth [7] | Minimum inhibitory concentration, Swarming [8] | Effect on HSL phenotype: luminescence [9] | Minimum inhibitory concentration, Growth [10] | Minimum inhibitory concentration, Swimming [11] | Effect on HSL phenotype: indigo formation [12] | Stimulation of indigo production by the compound itself [12] | Minimum inhibitory concentration, Swarming [13] | Minimum inhibitory concentration, Growth [14] | Effect on bacterial growth [15] | Minimum inhibitory concentration, Swarming [16] | further results
CCCCC1=C(Br)C(=C(Br)Br)OC1=O [Compound 1] | 0 mm | 0 mm | 0 mm | 1-2 mm | no effect | >50 µg/mL | >50 µg/mL | 50 µg/mL (≈ 129 µM) | inhibit | >50 µg/mL | 5 µg/mL (≈ 12.9 µM) | inhibit | >50 µg/mL | 25 µg/mL (≈ 64.3 µM) | inhibit | do not stimulate | 25 µg/mL (≈ 64.3 µM) | >50 µg/mL | no effect | 5 µg/mL (≈ 12.9 µM) | Minimum inhibitory concentration, Swimming [17]: 5 µg/mL (≈ 12.9 µM); Minimum inhibitory concentration, Swimming [18]: 5 µg/mL (≈ 12.9 µM); Effect on bacterial growth [19]: no effect; Minimum inhibitory concentration, Swarming [20]: 5 µg/mL (≈ 12.9 µM); Minimum inhibitory concentration, Swimming [21]: >50 µg/mL; Minimum inhibitory concentration, Growth [22]: 25 µg/mL (≈ 64.3 µM); Minimum inhibitory concentration, Swimming [23]: >50 µg/mL; width of inhibition zone ([24]; amount added 0.1 μg): 0 mm; width of inhibition zone ([24]; amount added 1 μg): 0 mm; width of inhibition zone ([24]; amount added 10 μg): 2-5 mm; width of inhibition zone ([24]; amount added 100 μg): 20 mm; Effect on HSL phenotype: elastase [25]: stimulated; Minimum inhibitory concentration, Swarming [26]: 25 µg/mL (≈ 64.3 µM); Effect on bacterial growth [27]: no effect; Minimum inhibitory concentration, Swarming [28]: 25 µg/mL (≈ 64.3 µM); Effect on HSL phenotype: luminescence [29]: inhibit
CCCCC1=C(Br)C(=CBr)OC1=O [Compound 2] | 0 mm | 0 mm | 0 mm | 2-3 mm | no effect | >50 µg/mL | >50 µg/mL | >50 µg/mL | inhibit | >50 µg/mL | 5 µg/mL (≈ 16.1 µM) | inhibit | >50 µg/mL | 25 µg/mL (≈ 80.6 µM) | inhibit | do not stimulate | 25 µg/mL (≈ 80.6 µM) | >50 µg/mL | no effect | 5 µg/mL (≈ 16.1 µM) | Effect on bacterial growth [30]: no detectable effect; Minimum inhibitory concentration, Swimming [17]: 5 µg/mL (≈ 16.1 µM); Minimum inhibitory concentration, Swimming [18]: 5 µg/mL (≈ 16.1 µM); Effect on bacterial growth [19]: no effect; Minimum inhibitory concentration, Swarming [20]: 5 µg/mL (≈ 16.1 µM); Minimum inhibitory concentration, Swimming [21]: >50 µg/mL; Minimum inhibitory concentration, Growth [22]: 25 µg/mL (≈ 80.6 µM); Minimum inhibitory concentration, Swimming [23]: >50 µg/mL; width of inhibition zone ([24]; amount added 0.1 μg): 0 mm; width of inhibition zone ([24]; amount added 1 μg): 0 mm; width of inhibition zone ([24]; amount added 10 μg): 2-4 mm; width of inhibition zone ([24]; amount added 100 μg): 20 mm; Effect on HSL phenotype: elastase [25]: stimulated; Minimum inhibitory concentration, Swarming [26]: 5 µg/mL (≈ 16.1 µM); Effect on bacterial growth [27]: no effect; Minimum inhibitory concentration, Swarming [28]: 5 µg/mL (≈ 16.1 µM); Effect on HSL phenotype: luminescence [29]: inhibit
